Patent US20250051409A1, “MODULATORS OF PHOSPHATIDYLSERlNE DECARBOXYLASE AND USE THEREOF” (THE NATIONAL INSTITUTE FOR BIOTECHNOLOGY IN THE NEGEV LTD., priority 2021, published 2025)
Square brackets hold non-standard residues; d marks the D form. Ends that are not written are not given here. Peptide text beside a SMILES is read from it. Dmt = Cc1cc(O)cc(C)c1C[C@H](N)C(=O)O; Orn = NCCC[C@H](N)C(=O)O

How the values were obtained:
SMAC = experiment: IF staining of peptide-treated tumor sections, SMAC; format: in vivo, nude mice; settings: peptide-treated A549 tumors
Protocol: (§1) Sections of paraffin-embedded control and peptide treated tumors were IF stained using specific antibodies and subjected to quantification. Relative staining intensity for the nuclear proliferation marker, Ki-67 (and its (A), SMAC (B) and NF-kB (C). Results represent the means±SEM (n=3) ***P≤0.001. (G) Sections from the indicated tumors were stained with H & E, with some areas were magnified.
(§2) In order to reduce non-specific binding, sections were incubated in 10% normal goat serum for 2 h, then incubated with primary antibodies (Table 1) overnight at 4° C. […] Sections were washed with water, counterstained with hematoxylin, and mounted with Vectashield mounting medium (Vector Laboratories, Burlingame, CA).

NF-κB = experiment: IF staining of peptide-treated tumor sections, NF-κB; format: in vivo, nude mice; settings: peptide-treated A549 tumors, immunofluorescence
Protocol: as §1, §2

A549 cell xenografts [1] = system: A549 cell xenografts
Protocol: (§4) A549 cells were S.C. inoculated into female nude mice (7×10^6 cells/mouse). Tumors sizes were measured (using a digital caliper) and volumes were calculated. When tumors volumes reached 60-100 mm3 (day 12), the mice were divided into 2 groups and xenografts were untreated (●) or treated with HtrA2/Omi-derived D-amino acid peptide targeted to the mitochondria (D-HTRA2-M, o). The tumors were injected 3 times a week to a final concentration of 50 μM. […] Tumors of A549 cell xenografts were dissected, photographed (B) and weighted (C). […] Results represent the means±SEM (n=8), **P≤0.01, ***P≤0.001.
(§5) A549 cells were inoculated subcutaneously into female nude mice (7×10^6 cells/mouse). Tumors sizes were measured (using a digital caliper) and volumes were calculated. When tumors volumes reached 60-100 mm3 (day 12), the mice were divided into 2 groups (control and treatment) and in the treatment group xenografts were treated with HtrA2/Omi-derived D-amino acid peptide (SEQ ID NO:35) targeted to the mitochondria. The tumors were injected 3 times a week to a final concentration of 50 μM or the peptide was administered by intravenous injection 2 times a week to a final concentration of 20 mg/kg. Tumors of A549 cell xenografts were dissected, photographed and weighted.

[2] = biological target: T1, phosphatidylserine decarboxylase (PSD) (Homo sapiens, UniProt Q9UG56); experiment: MST binding of synthetic peptides to fluorescently-labelled purified PSD; settings: PSD 0.25 μM, peptide 1-10 μM, 30 min at 37° C.
T1 construct: Purified recombinant protein (full length) of human phosphatidylserine decarboxylase (PSD); His tag (N); purchased Acris-OriGene; host or cells: E. coli
T1 sequence (Q9UG56 53-409): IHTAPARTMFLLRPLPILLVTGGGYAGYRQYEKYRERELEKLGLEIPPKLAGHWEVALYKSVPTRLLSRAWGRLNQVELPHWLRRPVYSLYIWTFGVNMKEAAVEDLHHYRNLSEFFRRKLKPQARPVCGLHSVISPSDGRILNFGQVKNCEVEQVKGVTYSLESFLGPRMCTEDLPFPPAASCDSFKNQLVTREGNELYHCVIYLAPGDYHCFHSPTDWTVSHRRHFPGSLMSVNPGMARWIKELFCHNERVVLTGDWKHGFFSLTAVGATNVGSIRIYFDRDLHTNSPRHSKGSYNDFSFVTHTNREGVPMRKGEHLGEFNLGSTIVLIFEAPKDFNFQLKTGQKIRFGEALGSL

[3] = biological target: T1, phosphatidylserine decarboxylase (PSD); experiment: Peptide array blotted with PSD preincubated with peptide; format: binding; settings: PSD 0.15 μM, peptide 20 μM
Protocol: (A) Schematic presentation of peptide array and detection of their interaction with SMAC. (B) Glass-bound peptide array consisting of overlapping peptides derived from […] SMAC-interacting proteins were incubated overnight with purified SMAC (0.3 μM) and then blotted with anti-SMAC antibodies (1:1000), followed by incubation with HRP-conjugated anti-mouse IgG and detection using a chemiluminescence kit. Dark spots represent binding of SMAC to peptides derived from SMAC-interacting proteins. (C) SMAC (0.3 μM) was incubated with purified PSD (0.4 μM) and blotted as in (B). The peptide spots where PSD prevented interaction with SMAC are circled. (D) Schematic presentation of peptide array and detection of their interaction with PSD. (E) Peptide array was blotted with purified PSD (0.15 μM) and then with anti-PSD antibodies as in (B). […]
Customized 768-peptide sequences derived from 11 SMAC-interacting proteins produced by INTAVIS Peptide Services (GmbH & Co. KG, Tubingen, Germany) were arrayed on a glass slide. […] Following extensive slide washing with Tris-buffered saline containing 0.05% Tween-20, SMAC or PSD binding was detected using anti-SMAC or anti-PSD antibodies and HRP-conjugated anti-rabbit or anti-mouse IgG as a secondary antibody. […]

A-549 cells = experiment: Cell death on DSB-3 staining; format: cell-based, human; settings: data not shown
Protocol: A549 and A549-SMAC-KO cells were seeded on sterile cover slips in 24-well cell culture plates (75,000 cells/well) and allowed to adhere for 24 h. MitoTracker® (250 nM in DMEM+10% FBS) was added, and plates were incubated in a CO2 incubator for 30 min at 37° C. Cells were washed with PBS and incubated with DSB3 (10 μM in reaction buffer; 40 mM NaCl, 1 mM KPO4, pH 7.4) in a C02 incubator for 2 h. Cells were washed with PBS, fixed with 4% PFA for 20 min at room temperature, washed with PBS, and stained with DAPI for 20 min at room temperature. Cover slips were washed with PBS and mounted with Vectashield, and imaging was done using confocal microscopy (Olympus 1X81).

A549 cell xenografts [4] = settings: tumors injected 3 times a week, final concentration 50 μM
Protocol: as §4, §5

different cell lines = settings: cited from earlier work
[5] = system: A549 lung cancer tumor xenograft; experiment: A549 xenograft tumor growth under si-hSMAC-A; format: in vivo, athymic nude mice
Description: (§3) Treatment was initiated when the average tumor volume in each group reached ˜50 mm^3. Results are presented as the mean tumor volume±SEM. […] Scale bars represent 50, 25 or 15 μm as indicated. […] Results are the means±SEM.
Male athymic nude mice (6-8 weeks old) were obtained from Envigo and were kept in Ben-Gurion University (Israel) animal facility in temperature-controlled rooms and provided with water and food pellets ad libitum. Lung cancer A549 (3×10^6) cells were implanted subcutaneously on the dorsal flanks. Tumor growth was recorded using digital calipers, and volumes were calculated using formula […] (L=length; W=width). Mice were divided randomly into three groups once the average tumor volume reached ˜80 mm^3, and were treated subcutaneously with si-NT (group 1) or si-hSMAC (group 2-350 nM group 3-700 nM final concentration) mixed with JetPEI reagent three times a week. Mice were sacrificed at the end of experiment, and the tumors were excised and processed for immunohistochemistry or frozen in liquid nitrogen for immunoblotting and RNA isolation. All procedures involving mice were approved by the Institutional Animal Care and Use Committee.

SMAC/Diablo = SMAC/Diablo level in si-hSMAC-A treated tumors (immunoblot, IHC); format: in vivo, athymic nude mice; settings: relative to si-NT-TTs
Protocol: as §3, §2
Cells were harvested and washed twice with ice-cold PBS, and the pellets were lysed on ice for 30 min in a lysis buffer (50 mM Tris-HCl, pH 7.5, 150 mM NaCl, 1 mM EDTA, 1.5 mM MgCl2, 10% glycerol, 1% Triton X-100), freshly supplemented with a protease inhibitor cocktail (Calbiochem), incubated on ice for 20 min and centrifuged thereafter (10 min, 12000 g). The protein concentration of the supernatant was determined and […] were stored at −80° C. until used for gel electrophoresis and immunoblotting. Protein samples (10-20 μg) were subjected to SDS-PAGE and immunoblotting, using the selected primary antibodies, followed by incubation with HRP-conjugated secondary antibodies. HRP activity was determined using enhanced chemiluminescent substrate (Pierce Chemical, Rockford, IL). Band intensity was quantified using FUSION-FX (Vilber Lourmat, France).

Ki-67 = Ki-67 IHC in si-hSMAC-A treated tumors; format: in vivo, athymic nude mice
Protocol: as §3, §2

[6] = system: A549 lung cancer tumor xenograft; experiment: TUNEL staining of si-hSMAC-A treated tumors; format: in vivo, athymic nude mice; settings: data not shown
[7] = system: total phospholipids (PLs), PC, and PE; experiment: PL, PC and PE levels in si-hSMAC-A treated tumors; format: in vivo, athymic nude mice; settings: relative to si-NT-TTs

## Cc1cc(O)cc(C)c1C[C@H](NC(=O)[C@@H](CCCNC(=N)N)NC(=O)[C@@H](CC(C)C)NC(=O)[C@@H](CCCNC(=N)N)NC(=O)[C@@H](C)NC(=O)[C@@H](Cc1c[nH]c2ccccc12)NC(=O)[C@@H](CC(C)C)NC(=O)[C@@H](CO)NC(=O)[C@H]1CCCN1C(=O)[C@H](NC(=O)CNC(=O)[C@@H](Cc1ccc(O)cc1)NC(=O)[C@H](NC(=O)[C@H](NC(=O)[C@@H](CCCNC(=N)N)NC(=O)[C@@H](C)NC(=O)[C@@H](CCCNC(=N)N)NC(=O)[C@H]1CCCN1C(=O)[C@@H](CC(=O)O)NC(=O)[C@@H](CO)NC(=O)[C@H](NC(=O)CNC(=O)[C@@H](CO)NC(=O)[C@H](NC(=O)[C@@H](CC(C)C)NC(=O)[C@@H](CC(C)C)NC(=O)[C@@H](C)N)[C@H](C)O)[C@H](C)O)C(C)C)[C@H](C)O)[C@H](C)O)C(=O)N[C@@H](CCCN)C(=O)N[C@@H](Cc1ccccc1)C(N)=O [1C11-HTRA2-All-D-Mito] (H-[dA][dL][dL][dT][dS]G[dT][dS][dD][dP][dR][dA][dR][dV][dT][dY]G[dT][dP][dS][dL][dW][dA][dR][dL][dR][Dmt][Orn]F-NH2; N-terminus and C-terminus assumed)
SMAC
  decrease in expression of SMAC in tumors: 80%
NF-κB
  decrease in NF-κB expression in tumors: ~90%
A549 cell xenografts [1]; intravenously, 20 mg/kg
  tumor growth: inhibits tumor growth
A549 cell xenografts [1]; intravenously, 20 mg/kg, 2 times a week
  decrease of tumor weight: 50%
A549 cell xenografts [1]; mouse, in vivo, iv
  inhibition of tumor growth: 50%

## ALLTSGTSDPRARVTYGTPSLWARL [1C11]
[2]
  Kd: 3 µM
[3]
  PSD interaction with array peptides after pre-incubation of PSD with the peptide: eliminate PSD interaction with most peptides

## Distyrylbenzene-bis-aldehyde [DSB-3]
A-549 cells
  cell death: induces no cell death

## SEQ ID NO:35: HtrA2/Omi-derived D-amino acid peptide targeted to the mitochondria ([dA][dL][dL][dT][dS]G[dT][dS][dD][dP][dR][dA][dR][dV][dT][dY]G[dT][dP][dS][dL][dW][dA][dR][dL])
A549 cell xenografts [4]
  decrease in tumor weight: up to 80%
A549 cell xenografts [4]; after 28 days
  increase of tumor volume: about 4 fold

## [dR][Dmt][Orn]F [mtCPP-1]
Different cell lines
  induction of apoptosis: did not induce apoptosis
  toxicity in cell lines: no toxicity

## si-hSMAC-A: Human SMAC/Diablo-specific siRNA, sense SEQ ID NO:33 and anti-sense SEQ ID NO:34 (sense AAGCGGUGUUUCUCAGAATTGTT; antisense AACAAUUCUGAGAAACCCGCTT; chemistry not given here)
[5]; si-hSMAC-A at 350 nM
  tumor volume reduction relative to si-NT-treated tumors: 50%
[5]; si-hSMAC-A at 700 nM
  tumor volume reduction relative to si-NT-treated tumors: 85%
SMAC/Diablo
  decrease of SMAC/Diablo level in treated tumors: 75%
Ki-67
  expression of Ki-67 in treated tumors: highly reduced
[6]
  cell death in treated tumors: No cell death was detected
[7]
  decrease of PC in treated tumors: 65%
  decrease of PLs in treated tumors: 50%
  increase of PE in treated tumors: 200%
